In general, IC50 refers to the concentration at which inhibition is half-maximal.

We go through 28 compounds from patent publication US8975398B2, “NAMPT inhibitors” (AbbVie Inc., priority 2012, dated 2015).

Assay [1] concerns the target NAMPT (human, recombinant, C-terminally His-tagged) (Homo sapiens, UniProt P43490). The assay is described as follows: Time-Resolved Fluorescence Resonance Energy Transfer (TR-FRET) Binding Assay of NAMPT. The conditions noted are these: 6.8 nM NAMPT, 200 nM probe, equilibrated 3 hours, absence of substrates. The procedure, abridged: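 Recombinant C-terminally His-tagged human NAMPT (6.8 nM) incubated 3 h at room temperature with 200 nM Oregon Green 488–labelled nicotinamide-competitive probe and 1 nM Tb-anti-His antibody in HEPES pH 7.5, 2% DMSO. TR-FRET ratio Em520/Em495 normalized to controls; IC50 from four-parameter logistic fit.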
For orientation: TR-FRET usually uses a lanthanide donor and a delayed reading to cut background.

For another assay, the target named is NAMPT (Homo sapiens, UniProt P43490). The assay is described as follows: Time-Resolved Fluorescence Resonance Energy Transfer (TR-FRET) Binding Assay of NAMPT with PRPP. The conditions noted are these: 2 nM NAMPT, 2 nM probe, 200 uM PRPP and 2.5 mM ATP, equilibrated 16 hours. In a few lines: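 Final mix: 2 nM NAMPT, 2 nM probe, 1 nM Tb-anti-His antibody, 200 uM PRPP, 2.5 mM ATP, 2% DMSO in 1× assay buffer. Equilibrated 16 hours before TR-FRET read, allowing possible enzymatic modification of compounds.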
NAMPT, sequence (P43490 whole entry): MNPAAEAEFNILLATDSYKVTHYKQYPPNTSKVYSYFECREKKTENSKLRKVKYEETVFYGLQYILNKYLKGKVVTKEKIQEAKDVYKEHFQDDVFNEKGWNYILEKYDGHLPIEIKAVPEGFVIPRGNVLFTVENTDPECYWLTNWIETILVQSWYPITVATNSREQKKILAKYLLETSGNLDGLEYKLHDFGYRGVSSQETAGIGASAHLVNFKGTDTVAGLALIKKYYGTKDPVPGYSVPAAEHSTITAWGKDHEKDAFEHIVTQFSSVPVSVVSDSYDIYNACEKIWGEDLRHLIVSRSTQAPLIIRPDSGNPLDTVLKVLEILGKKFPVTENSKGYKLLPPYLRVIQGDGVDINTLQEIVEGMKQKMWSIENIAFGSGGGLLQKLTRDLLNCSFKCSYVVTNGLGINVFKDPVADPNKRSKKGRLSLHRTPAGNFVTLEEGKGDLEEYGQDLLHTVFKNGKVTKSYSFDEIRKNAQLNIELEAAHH

NAMPT (human, recombinant, C-terminally His-tagged), sequence (P43490 whole entry): as above

`O=C(Nc1ccc(OC2CCN(C(=O)C(F)(F)c3ccccc3)CC2)cc1)C1CN(c2ccnnc2)C1` [Example 269, N-[4-({1-[difluoro(phenyl)acetyl]piperidin-4-yl}oxy)phenyl]-1-(pyridazin-4-yl)azetidine-3-carboxamide]: the results for the half-maximal inhibitory concentration (IC50) (in assay [1]; on NAMPT) were 37.7 nM and 22.3 nM, respectively.

On to `O=C(Nc1ccc(OC2CCN(C(=O)C3CCC(F)(F)CC3)CC2)cc1)C1CN(c2ccnnc2)C1` [Example 270, N-[4-({1-[(4,4-difluorocyclohexyl)carbonyl]piperidin-4-yl}oxy)phenyl]-1-(pyridazin-4-yl)azetidine-3-carboxamide], for which the concentration for half-maximal inhibition (IC50) worked out at 74.8 nM in assay [1] and 35.7 nM on NAMPT.

Consider `O=C(Nc1ccc(OC2CCN(C(=O)c3ccc(F)cc3)CC2)cc1)C1CN(c2ccnnc2)C1` [Example 271, N-(4-{[1-(4-fluorobenzoyl)piperidin-4-yl]oxy}phenyl)-1-(pyridazin-4-yl)azetidine-3-carboxamide], for which the IC50 came to 78 nM in assay [1] and 25.2 nM at NAMPT.

As for `O=C(Nc1ccc(OC2CCN(C(=O)c3cscn3)CC2)cc1)C1CN(c2ccnnc2)C1` [Example 272, 1-(pyridazin-4-yl)-N-(4-{[1-(1,3-thiazol-4-ylcarbonyl)piperidin-4-yl]oxy}phenyl)azetidine-3-carboxamide], the IC50 in assay [1] was determined as 165 nM; on NAMPT, 52.4 nM.

On to `O=C(Nc1ccc(OC2CCN(C(=O)Cc3ccc(C(F)(F)F)cc3)CC2)cc1)C1CN(c2ccnnc2)C1` [Example 273, 1-(pyridazin-4-yl)-N-{4-[(1-{[4-(trifluoromethyl)phenyl]acetyl}piperidin-4-yl)oxy]phenyl}azetidine-3-carboxamide], for which the IC50 in assay [1] was determined as 128 nM; on NAMPT it was 42.1 nM.

Turning to `O=C(Nc1ccc(OC2CCN(C(=O)c3ccc(F)c(F)c3)CC2)cc1)C1CN(c2ccnnc2)C1` [Example 274, N-(4-{[1-(3,4-difluorobenzoyl)piperidin-4-yl]oxy}phenyl)-1-(pyridazin-4-yl)azetidine-3-carboxamide], the IC50 turned out to be 152 nM in assay [1] and 64.5 nM on NAMPT.

As for `O=C(Nc1ccc(OC2CCN(C(=O)Cc3ccc(OC(F)(F)F)cc3)CC2)cc1)C1CN(c2ccnnc2)C1` [Example 275, 1-(pyridazin-4-yl)-N-{4-[(1-{[4-(trifluoromethoxy)phenyl]acetyl}piperidin-4-yl)oxy]phenyl}azetidine-3-carboxamide], the IC50 in assay [1] was 231 nM; on NAMPT, 45.1 nM.

With `O=C(Nc1ccc(OC2CCN(C(=O)Cc3ccc(F)cc3)CC2)cc1)C1CN(c2ccnnc2)C1` [Example 276, N-[4-({1-[(4-fluorophenyl)acetyl]piperidin-4-yl}oxy)phenyl]-1-(pyridazin-4-yl)azetidine-3-carboxamide], the IC50 was 134 nM in assay [1] and 34.9 nM at NAMPT.

Regarding `O=C(Nc1ccc(OC2CCN(C(=O)Cc3ccc(F)cc3F)CC2)cc1)C1CN(c2ccnnc2)C1` [Example 277, N-[4-({1-[(2,4-difluorophenyl)acetyl]piperidin-4-yl}oxy)phenyl]-1-(pyridazin-4-yl)azetidine-3-carboxamide], the results for the concentration for half-maximal inhibition (IC50) (in assay [1]; on NAMPT) were 62.4 nM and 26.7 nM, respectively.

As for `O=C(Nc1ccc(OC2CCN(C(=O)c3ccsc3)CC2)cc1)C1CN(c2ccnnc2)C1` [Example 278, 1-(pyridazin-4-yl)-N-(4-{[1-(thiophen-3-ylcarbonyl)piperidin-4-yl]oxy}phenyl)azetidine-3-carboxamide], the IC50 in assay [1] came to 75.8 nM; on NAMPT, 33.4 nM.

For the compound `O=C(Nc1ccc(OC2CCN(C(=O)c3ccccc3Cl)CC2)cc1)C1CN(c2ccnnc2)C1` [Example 279, N-(4-{[1-(2-chlorobenzoyl)piperidin-4-yl]oxy}phenyl)-1-(pyridazin-4-yl)azetidine-3-carboxamide], the IC50 in assay [1] came out at 20.2 nM; at NAMPT, 15.5 nM.

On to `CC(C)(C)C(=O)N1CCC(Oc2ccc(NC(=O)C3CN(c4ccnnc4)C3)cc2)CC1` [Example 280, N-(4-{[1-(2,2-dimethylpropanoyl)piperidin-4-yl]oxy}phenyl)-1-(pyridazin-4-yl)azetidine-3-carboxamide], for which the results for the IC50 (in assay [1]; at NAMPT) were 123 nM and 51.9 nM, respectively.

For the compound `CC(C)(C(=O)N1CCC(Oc2ccc(NC(=O)C3CN(c4ccnnc4)C3)cc2)CC1)c1ccccc1` [Example 281, N-(4-{[1-(2-methyl-2-phenylpropanoyl)piperidin-4-yl]oxy}phenyl)-1-(pyridazin-4-yl)azetidine-3-carboxamide], the values for the IC50 (in assay [1]; at NAMPT) were 20.5 nM and 14.9 nM, respectively.

In the case of `CC(=O)N1CCC(Oc2ccc(NC(=O)C3CN(c4ccnnc4)C3)cc2)CC1` [Example 282, N-{4-[(1-acetylpiperidin-4-yl)oxy]phenyl}-1-(pyridazin-4-yl)azetidine-3-carboxamide], the values for the IC50 (in assay [1]; at NAMPT) were 383 nM and 90 nM, respectively.

In the case of `O=C(Nc1ccc(OC2CCN(C(=O)c3nccs3)CC2)cc1)C1CN(c2ccnnc2)C1` [Example 283, 1-(pyridazin-4-yl)-N-(4-{[1-(1,3-thiazol-2-ylcarbonyl)piperidin-4-yl]oxy}phenyl)azetidine-3-carboxamide], the IC50 is 72.3 nM in assay [1] and 32.2 nM at NAMPT.

For the compound `O=C(Nc1ccc(OC2CCN(C(=O)c3ccc(F)cc3F)CC2)cc1)C1CN(c2ccnnc2)C1` [Example 284, N-(4-{[1-(2,4-difluorobenzoyl)piperidin-4-yl]oxy}phenyl)-1-(pyridazin-4-yl)azetidine-3-carboxamide], the IC50 is 62.4 nM in assay [1] and 38.2 nM on NAMPT.

As for `O=C(Nc1ccc(OC2CCN(C(=O)c3cccc(C(F)(F)F)c3)CC2)cc1)C1CN(c2ccnnc2)C1` [Example 285, 1-(pyridazin-4-yl)-N-[4-({1-[3-(trifluoromethyl)benzoyl]piperidin-4-yl}oxy)phenyl]azetidine-3-carboxamide], the values for the IC50 (in assay [1]; at NAMPT) were 149 nM and 86.2 nM, respectively.

With `O=C(Nc1ccc(OC2CCN(C(=O)c3cccc(F)c3)CC2)cc1)C1CN(c2ccnnc2)C1` [Example 286, N-(4-{[1-(3-fluorobenzoyl)piperidin-4-yl]oxy}phenyl)-1-(pyridazin-4-yl)azetidine-3-carboxamide], the results for the IC50 (in assay [1]; on NAMPT) were 127 nM and 66.4 nM, respectively.

Regarding `O=C(Nc1ccc(OC2CCN(C(=O)c3ccc(C(F)(F)F)cc3)CC2)cc1)C1CN(c2ccnnc2)C1` [Example 287, 1-(pyridazin-4-yl)-N-[4-({1-[4-(trifluoromethyl)benzoyl]piperidin-4-yl}oxy)phenyl]azetidine-3-carboxamide], the IC50 in assay [1] was found to be 125 nM; at NAMPT it was 63.2 nM.

For the compound `O=C(Nc1ccc(OC2CCN(C(=O)Cc3cccc(F)c3)CC2)cc1)C1CN(c2ccnnc2)C1` [Example 288, N-[4-({1-[(3-fluorophenyl)acetyl]piperidin-4-yl}oxy)phenyl]-1-(pyridazin-4-yl)azetidine-3-carboxamide], the IC50 turned out to be 44.9 nM in assay [1] and 19.5 nM on NAMPT.

On to `O=C(Nc1ccc(OC2CCN(C(=O)c3ccccc3F)CC2)cc1)C1CN(c2ccnnc2)C1` [Example 289, N-(4-{[1-(2-fluorobenzoyl)piperidin-4-yl]oxy}phenyl)-1-(pyridazin-4-yl)azetidine-3-carboxamide], for which the IC50 amounted to 41.6 nM in assay [1] and 32.1 nM at NAMPT.

On to `O=C(Nc1ccc(OC2CCN(C(=O)c3ccc(OC(F)(F)F)cc3)CC2)cc1)C1CN(c2ccnnc2)C1` [Example 290, 1-(pyridazin-4-yl)-N-[4-({1-[4-(trifluoromethoxy)benzoyl]piperidin-4-yl}oxy)phenyl]azetidine-3-carboxamide], for which the half-maximal inhibitory concentration (IC50) in assay [1] was 99.3 nM; at NAMPT, 45.7 nM.

Take `O=C(Nc1ccc(OC2CCN(C(=O)Cc3cc(F)cc(F)c3)CC2)cc1)C1CN(c2ccnnc2)C1` [Example 291, N-[4-({1-[(3,5-difluorophenyl)acetyl]piperidin-4-yl}oxy)phenyl]-1-(pyridazin-4-yl)azetidine-3-carboxamide]: the IC50 stood at 45.6 nM in assay [1] and 18.2 nM on NAMPT.

With `O=C(Nc1ccc(OC2CCN(C(=O)c3cccc(OC(F)(F)F)c3)CC2)cc1)C1CN(c2ccnnc2)C1` [Example 292, 1-(pyridazin-4-yl)-N-[4-({1-[3-(trifluoromethoxy)benzoyl]piperidin-4-yl}oxy)phenyl]azetidine-3-carboxamide], the IC50 in assay [1] came to 99 nM; on NAMPT it was 64.7 nM.

As to `O=C(Nc1ccc(OC2CCN(C(=O)CC3CC3)CC2)cc1)C1CN(c2ccnnc2)C1` [Example 293, N-(4-{[1-(cyclopropylacetyl)piperidin-4-yl]oxy}phenyl)-1-(pyridazin-4-yl)azetidine-3-carboxamide], the IC50 in assay [1] was 78.2 nM; on NAMPT it was 25.3 nM.

For the compound `CC(C)C(=O)N1CCC(Oc2ccc(NC(=O)C3CN(c4ccnnc4)C3)cc2)CC1` [Example 294, N-(4-{[1-(2-methylpropanoyl)piperidin-4-yl]oxy}phenyl)-1-(pyridazin-4-yl)azetidine-3-carboxamide], the IC50 is 112 nM in assay [1] and 55.1 nM on NAMPT.

On to `O=C(Nc1ccc(OC2CCN(C(=O)c3cccc(Cl)c3)CC2)cc1)C1CN(c2ccnnc2)C1` [Example 295, N-(4-{[1-(3-chlorobenzoyl)piperidin-4-yl]oxy}phenyl)-1-(pyridazin-4-yl)azetidine-3-carboxamide], for which the IC50 in assay [1] turned out to be 77.6 nM; on NAMPT, 51 nM.

With `O=C(Nc1ccc(OC2CCN(C(=O)c3ccccn3)CC2)cc1)C1CN(c2ccnnc2)C1` [Example 296, 1-(pyridazin-4-yl)-N-(4-{[1-(pyridin-2-ylcarbonyl)piperidin-4-yl]oxy}phenyl)azetidine-3-carboxamide], the values for the IC50 (in assay [1]; at NAMPT) were 149 nM and 57.1 nM, respectively.
